Patent US9156801B2, “2-substituted oleanolic acid derivative, method preparing for same, and application thereof” (HANGZHOU BENSHENG PHARMACEUTICAL CO., LTD., priority 2011, dated 2015)

Experiments:
Hep G2 cell line = experiment: solid tumor cell growth inhibition, MTT; assay type: cell-based, human; conditions: Homo sapiens
Experimental: (§1) Hep-2 (laryngeal carcinoma), A549 (human lung cancer), CaES-17 (esophageal cancer cell), PC-3 (prostate cancer), CNE (nasopharyngeal carcinoma cell), and SK-OV-3 (ovarian cancer cell), all of which are purchased from China Center For Type Culture Collection; RKO (human colon adenocarcinoma cell), MGC 803 (human gastric cancer cell), MG63 (osteosarcoma) and U87 MG (malignant glioma cell), all of which are purchased from Fuxiang Bio-tech Co. Ltd., Shanghai, China; PANC-1 (pancreatic cancer), Hep G2 (human liver cancer cell), Becap37 (human breast cancer cell), and Hela (human cervical cancer cell), all of which are donated by Cancer Research Institute of Zhejiang University, China.
(§2) Obtaining 4000 well-growing human solid tumor cells and inoculating them into wells of a 96-well cell culture plate. The culture medium is DMEM High Glucose cell culture medium containing 10% fetal bovine serum. The plate is placed in a carbon dioxide cell incubator (5% CO2) at 37° C. for 24 hours. After adding the 2-substituted oleanolic acid derivatives of different concentrations and mixing uniformly, the plate is placed in a carbon dioxide cell incubator (5% CO2) at 37° C. and incubated for 72 hours. Then the relative number of the living cells is determined by MTT method. In this experiment, the cell proliferation inhibition rate in control group (not treated with any compound) is set as 0%.

NB4 cell line = experiment: leukemia cell growth inhibition, MTT; assay type: cell-based; conditions: Homo sapiens, NB-4
Source text: (§3) Leukemia cell lines: leukemia cell lines: K562/adr (drug-resistant, chronic myeloid leukemia, CML), NB4 (acute promyelocytic leukemia, AML), Kasumi-1 (acute myeloid leukemia M2 type, AML-M2), Jurkat (acute lymphoblastic leukemia, ALL), all of which are donated by Cancer Research Institute of Zhejiang University, China; and H9 (acute lymphoblastic leukemia, ALL), which is purchased from China Center for Type Culture Collection (CCTCC).
(§4) Obtaining 6000 well-growing leukemia cells and inoculating them into wells of a 96-well cell culture plate. The culture medium is the 1640 cell culture medium containing 10% fetal bovine serum. After adding the 2-substituted oleanolic acid derivatives of different concentrations and mixing uniformly, placing the plate in a carbon dioxide cell incubator (5% CO2) at 37° C. and incubated for 72 hours. Then the relative number of viable cells is determined by MTT method. In this experiment, cell proliferation inhibition rate in control group (not treated with any compound) is set as 0%.

Jurkat cell line = experiment: leukemia cell growth inhibition, MTT; assay type: cell-based; conditions: Homo sapiens, 72 h
Source text: as §3, §4

H9 cell line = experiment: leukemia cell growth inhibition, MTT; assay type: cell-based; conditions: Homo sapiens
Source text: as §3, §4

K562/adr cell line = experiment: leukemia cell growth inhibition, MTT; assay type: cell-based; conditions: Homo sapiens, 72 h
Source text: as §3, §4

Kasumi-1 cell line = experiment: leukemia cell growth inhibition, MTT; assay type: cell-based; conditions: Homo sapiens
Source text: as §3, §4

RPMI8226 cell line = experiment: multiple myeloma cell growth inhibition, MTT; assay type: cell-based; conditions: Homo sapiens, RPMI-8226
Experimental: Multiple myeloma cell lines: RPMI8226 (multiple myeloma), purchased from Fuxiang Bio-tech Co. Ltd., Shanghai, China.
Obtaining 6000 well-growing cells as above and inoculating them into wells of a 96-well cell culture plate. The culture medium is the 1640 cell culture medium containing 10% fetal bovine serum. After adding the 2-substituted oleanolic acid derivatives of different concentrations and mixing uniformly, placing the plate in a carbon dioxide cell incubator (5% CO2) at 37° C. and incubated for 72 hours. Then the relative number of viable cells is determined by MTT method. In this experiment, cell proliferation inhibition rate in control group (not treated with any compound) is set as 0%.

SK-OV-3 cell line = experiment: solid tumor cell growth inhibition, MTT; assay type: cell-based; conditions: Homo sapiens
Experimental: as §1, §2

RKO cell line = experiment: solid tumor cell growth inhibition, MTT; assay type: cell-based; conditions: Homo sapiens, 72 h
Experimental: as §1, §2

MG-63 cell line = experiment: solid tumor cell growth inhibition, MTT; assay type: cell-based; conditions: Homo sapiens
Experimental: as §1, §2

MGC 803 cell line = experiment: solid tumor cell growth inhibition, MTT; assay type: cell-based; conditions: Homo sapiens
Experimental: as §1, §2

Hela cell line = experiment: solid tumor cell growth inhibition, MTT; assay type: cell-based; conditions: Homo sapiens, 72 h
Experimental: as §1, §2

Hep-2 cell line = experiment: solid tumor cell growth inhibition, MTT; assay type: cell-based; conditions: Homo sapiens
Experimental: as §1, §2

CNE cell line = experiment: solid tumor cell growth inhibition, MTT; assay type: cell-based; conditions: Homo sapiens, 72 h
Experimental: as §1, §2

U87 MG cell line = experiment: solid tumor cell growth inhibition, MTT; assay type: cell-based; conditions: Homo sapiens, U-87 MG, 72 h
Experimental: as §1, §2

CaES-17 cell line = experiment: solid tumor cell growth inhibition, MTT; assay type: cell-based; conditions: Homo sapiens, CaEs17
Experimental: as §1, §2

A549 cell line = experiment: solid tumor cell growth inhibition, MTT; assay type: cell-based; conditions: Homo sapiens
Experimental: as §1, §2

PANC-1 cell line = experiment: solid tumor cell growth inhibition, MTT; assay type: cell-based; conditions: Homo sapiens
Experimental: as §1, §2

Becap37 cell line = experiment: solid tumor cell growth inhibition, MTT; assay type: cell-based; conditions: Homo sapiens
Experimental: as §1, §2

PC-3 cell line = experiment: solid tumor cell growth inhibition, MTT; assay type: cell-based; conditions: Homo sapiens
Experimental: as §1, §2

[1] = 16 μg/mL compound, read-out: IR (cell proliferation inhibition rate)

IC50 (Hep G2 cell line; HepG2, Hep G2, 72 h): > 16 µg/mL
IC50 (NB4 cell line; NB4, 72 h): > 16 µg/mL
IC50 (Jurkat cell line): > 16 µg/mL
IC50 (H9 cell line; H9, 72 h): > 16 µg/mL
IC50 (K562/adr cell line; K562/Adr): > 16 µg/mL
IC50 (Kasumi-1 cell line; Kasumi-1, 72 h): > 16 µg/mL
IC50 (RPMI8226 cell line; RPMI8226, 72 h): > 16 µg/mL
IC50 (SK-OV-3 cell line; SK-OV-3, 72 h): > 16 µg/mL
IC50 (RKO cell line): > 16 µg/mL
IC50 (MG-63 cell line; MG-63, 72 h): > 16 µg/mL
IC50 (MGC 803 cell line; MGC 803, 72 h): > 16 µg/mL
IC50 (Hela cell line; HeLa): > 16 µg/mL
IC50 (Hep-2 cell line; HEp-2, 72 h): > 16 µg/mL
IC50 (CNE cell line): > 16 µg/mL
IC50 (U87 MG cell line): > 16 µg/mL
IC50 (CaES-17 cell line; CaES-17, 72 h): > 16 µg/mL
IC50 (A549 cell line; A549, 72 h): > 16 µg/mL
IC50 (PANC-1 cell line; PANC-1, 72 h): > 16 µg/mL
IC50 (Becap37 cell line; Becap37, 72 h): > 16 µg/mL
IC50 (PC-3 cell line; PC-3, 72 h): > 16 µg/mL
SMILES: COC(=O)[C@]12CCC(C)(C)CC1C1=CCC3[C@@]4(C)CC(C(=O)NC5CC5)C(=O)C(C)(C)C4CC[C@@]3(C)[C@]1(C)CC2 (stereo partly shown) [BS-OA-034]
inhibition at 16 µg/mL (Hep G2 cell line; HepG2, 72 h, Hep G2, 16 μg/mL compound, 72 h, read-out: IR (cell proliferation inhibition rate)): 8.9%
inhibition at 16 µg/mL (NB4 cell line; NB4, 16 μg/mL compound, 72 h, read-out: IR (cell proliferation inhibition rate)): 22.3%
inhibition at 16 µg/mL (Jurkat cell line; [1]): -19.6%
inhibition at 16 µg/mL (H9 cell line; H9, 16 μg/mL compound, 72 h, read-out: IR (cell proliferation inhibition rate)): 22.1%
inhibition at 16 µg/mL (K562/adr cell line; K562/adr, 16 μg/mL compound, read-out: IR (cell proliferation inhibition rate)): 25.3%
inhibition at 16 µg/mL (Kasumi-1 cell line; Kasumi-1, 16 μg/mL compound, 72 h, read-out: IR (cell proliferation inhibition rate)): 22.6%
inhibition at 16 µg/mL (RPMI8226 cell line; RPMI8226, 16 μg/mL compound, 72 h, read-out: IR (cell proliferation inhibition rate)): 15.5%
inhibition at 16 µg/mL (SK-OV-3 cell line; SK-OV-3, 16 μg/mL compound, 72 h, read-out: IR (cell proliferation inhibition rate)): 21.3%
inhibition at 16 µg/mL (RKO cell line; [1]): -41%
inhibition at 16 µg/mL (MG-63 cell line; MG-63, 16 μg/mL compound, 72 h, read-out: IR (cell proliferation inhibition rate)): -5.4%
inhibition at 16 µg/mL (MGC 803 cell line; MGC 803, 16 μg/mL compound, 72 h, read-out: IR (cell proliferation inhibition rate)): -3.2%
inhibition at 16 µg/mL (Hela cell line; Hela, 16 μg/mL compound, read-out: IR (cell proliferation inhibition rate)): 0.6%
inhibition at 16 µg/mL (Hep-2 cell line; Hep-2, 16 μg/mL compound, 72 h, read-out: IR (cell proliferation inhibition rate)): 5.4%
inhibition at 16 µg/mL (CNE cell line; [1]): 16.7%
inhibition at 16 µg/mL (U87 MG cell line; [1]): 18.2%
inhibition at 16 µg/mL (CaES-17 cell line; CaES-17, 16 μg/mL compound, 72 h, read-out: IR (cell proliferation inhibition rate)): -6.7%
inhibition at 16 µg/mL (A549 cell line; A549, 16 μg/mL compound, 72 h, read-out: IR (cell proliferation inhibition rate)): 5.3%
inhibition at 16 µg/mL (PANC-1 cell line; PANC-1, 16 μg/mL compound, 72 h, read-out: IR (cell proliferation inhibition rate)): -9.9%
inhibition at 16 µg/mL (Becap37 cell line; Becap37, 16 μg/mL compound, 72 h, read-out: IR (cell proliferation inhibition rate)): -6.7%
inhibition at 16 µg/mL (PC-3 cell line; PC-3, 16 μg/mL compound, 72 h, read-out: IR (cell proliferation inhibition rate)): 19%
